Test results taken from EPA's ToxValDB 9.5 (doi:10.2903/j.efsa.2013.3461).
In brackets after ≈: the same amount, converted by molar mass.

Columns and labels:
[1] = system: Rattus norvegicus; settings: for LD50: acute, oral, mortality
[2] = system: Anas platyrhynchos; settings: short-term; oral; feed; mortality
[3] = system: Apis mellifera; settings: acute, duration: 48 hours, mortality
[4] = system: Bibionidae; settings: chronic/long-term; duration: 28 days; development
[5] = system: Canidae; settings: oral, Dog Other, hematological
[6] = system: Colinus virginianus
[7] = system: Daphnia magna; settings: chronic/long-term; duration: 21 days; reproduction
[8] = system: Oncorhynchus mykiss
[9] = system: Tagia sp.

In the case of `Cc1cc(C)cc(C(=O)N(NC(=O)c2ccc3c(c2C)C(O)CCO3)C(C)(C)C)c1` (configuration not stated) [Chromafenozide metabolite (M 010)], the LD50 [1] is reported as over 2000 mg/kg.
`Cc1cc(C)cc(C(=O)N(NC(=O)c2ccc3c(c2C)CCCO3)C(C)(C)C)c1` [Chromafenozide] was tested, and the LC50 [2] was over 2160 mg/kg-day, the LD50 ([3]; dermal) was over 100 µg/piece and the LD50 ([3]; oral, unspecified) was over 133 µg/piece. For the same compound, the NOEC [4] was 0.047 mg/kg, the NOAEL ([5]; chronic, duration: 52 weeks) was 27 mg/kg-day and the NOAEL ([5]; subchronic, duration: 90 days) was 52 mg/kg-day. The LC50 ([6]; acute, oral, diet, mortality) was over 1840 mg/kg-day, the LD50 ([6]; acute, oral, mortality) was over 2000 mg/kg and the NOEC ([6]; reproduction developmental, reproduction) was 79 mg/kg-day. The NOEC [7] was 0.84 mg/L, the LC50 ([8]; acute, duration: 96 hours, mortality) was 4.5 mg/L (≈ 11.4 µM) and the NOEC ([8]; chronic/long-term, duration: 28 days, growth) was 0.96 mg/L. The LD50 [1] was over 5000 mg/kg, the NOEL ([1]; reproduction developmental, histopathology: nonneoplastic) was 128 mg/kg-day and the LC50 ([9]; acute, duration: 14 days, mortality) was over 1000 mg/kg. It also gave an NOEC ([9]; chronic/long-term, duration: 8 weeks, reproduction) of 49 mg/kg.
